Data reported in patent publication US20240408169A1 (priority 2023, published 2024).
Where two headings read alike, the source gives them in different places. *1 amine or outer side, *2 acyl side, *3 side chain or, on linkers, in order; H or OH if unused. Where a SMILES comes first, the peptide text is derived from it. Bridges are numbered along the chain shown (N, C = ends). [ ]: non-standard residue; d: D form. The star is where a group is joined. X98 = CN1CC2(C1)OCc1cc(-c3ccc(Cl)cc3C[C@@H](C(=O)[*:2])N(C)[*:1])ccc12; X90 = CC(=O)N1CC=C(c2ccc(Cl)cc2C[C@@H](C(=O)[*:2])N(C)[*:1])CC1; X216 = CN1CCC(c2ccc(Cl)cc2C[C@@H](C(=O)[*:2])N(C)[*:1])=CC1=O; X68 = CN([C@@H](Cc1cc(Cl)ccc1-c1cnn(C2CC2)c1)C(=O)[*:2])[*:1]; NMehhhLys(Me) = CN([C@@H](CCCCCCCN(C)[*:3])C(=O)[*:2])[*:1]; X215 = Cc1noc(C)c1-c1ccc(Cl)cc1C[C@@H](C(=O)[*:2])N(C)[*:1]; X66 = CN([C@@H](Cc1cc(Cl)ccc1-c1cccnc1)C(=O)[*:2])[*:1]; NMe(hhhLys) = CN([C@@H](CCCCCCCN[*:3])C(=O)[*:2])[*:1]; NMe3Pal(2-OMe,5-Cl) = CN[C@@H](Cc1cc(Cl)cnc1OC)C(=O)O; X213 = CN([C@@H](Cc1cc(Cl)cc2c1cnn2C)C(=O)[*:2])[*:1]; X214 = CC(C)Cc1ccc(Cl)cc1C[C@@H](C(=O)[*:2])N(C)[*:1]; cBuCO(3,3-F2-1-CF3) = O=C(C1(C(F)(F)F)CC(F)(F)C1)*; NMePhe(2,5-Cl2) = CN[C@@H](Cc1cc(Cl)ccc1Cl)C(=O)O; Pro(trans-4-F) = O=C(O)[C@@H]1C[C@@H](F)CN1; Gly(cPr) = N[C@H](C(=O)O)C1CC1

How the values were obtained:
CyclinA2/CDK2 = biological target: T1, CyclinA2/CDK2 (Homo sapiens, UniProt P20248); assay: Fluorescence Polarization (FP) competitive binding assay, Cyclin A2/Cdk2;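 further: plates equilibrated two hours at room temperature before polarization reading, IC50 fitted from eight-concentration compound titration curves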
T1 construct: purchased CRELUX Protein Services

CyclinB1/CDK1 = biological target: T2, CyclinB1/CDK1 (Homo sapiens, UniProt P14635); assay: Fluorescence Polarization (FP) competitive binding assay, Cyclin B1/Cdk1;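 further: fluorescence polarization read after equilibration at room temperature, with IC50 taken from serially diluted dose-response curves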
T2 construct: purchased Eurofins, discovery 14-450

CyclinE1/CDK2 = biological target: T3, CyclinE1/CDK2 (Homo sapiens, UniProt P24864); assay: Fluorescence Polarization (FP) competitive binding assay, Cyclin E1/Cdk2;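 further: readings taken after two-hour equilibration at room temperature in HEPES buffer with NaCl, DTT, NP-40 and BSA, IC50 fitted from eight-concentration serial dilution series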
T3 construct: purchased Eurofins, discovery 14-475

NCI-H1048 cells = assay: MTT proliferation assay, NCI-H1048; type: cell-based; details: 5 days compound exposure, 1:3 serial dilution starting at 10 μM;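 further: Dose-response in 96-well plates over 8 or 10 concentration points, with exposure spanning 3-4 cell doublings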
OVCAR3 cells = assay: MTT proliferation assay, OVCAR3; type: cell-based; details: 5 days compound exposure, 1:3 serial dilution starting at 10 μM;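 further: compound given as an 8- or 10-point series, one day after plating, with exposure covering roughly 3-4 cell doublings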
[1] = 8 nM Cyclin A2/Cdk2, 2 nM FAM probe, average of 2-3 independent experiments, read-out: Cyclin A FP IC50
[2] = 10 nM Cyclin B1/Cdk1, 2 nM FAM probe; average of 2-3 independent experiments; read-out: Cyclin B FP IC50
[3] = 10 nM Cyclin E1/Cdk2, 2 nM FAM probe, average of 2-3 independent experiments, read-out: Cyclin E FP IC50
[4] = read-out: Cyclin B FP IC50; 10 nM Cyclin B1/Cdk1, 2 nM FAM probe; average of 2-3 independent experiments

Q: How did the IC50 (CyclinA2/CDK2; [1]) turn out when CC(C)C[C@@H]1NC(=O)[C@@H](N(C)C(=O)[C@@H](NC(=O)[C@@H]2C[C@@H](F)CN2C(=O)C2(C(F)(F)F)CC(F)(F)C2)C2CC2)CCCCCCCNC(=O)[C@H](Cc2cc(Cl)ccc2-c2cnn(C3CC3)c2)N(C)C1=O [Example 67] ({cBuCO(3,3-F2-1-CF3)}-[Pro(trans-4-F)][Gly(cPr)][NMe(hhhLys)]L[X68]; lactam 3-C) was run?
A: 20 nM

Q: What about the IC50 (CyclinB1/CDK1; [2]) of the same compound?
A: 20 nM

Q: What about the IC50 (CyclinE1/CDK2; [3]) of the same compound?
A: 500 nM

Q: And the GI50 (NCI-H1048 cells)?
A: 10 nM

Q: What about the GI50 (OVCAR3 cells) of the same compound?
A: 10 nM

Q: CC(C)C[C@@H]1NC(=O)[C@@H](N(C)C(=O)[C@@H](NC(=O)[C@@H]2C[C@@H](F)CN2C(=O)C2(C(F)(F)F)CC3(CCC3)C2)C2CC2)CC=CCCCCNC(=O)[C@H](Cc2cc(Cl)ccc2Cl)N(C)C1=O (single isomer, unassigned) [Example 16-P1] was tested. Which IC50 (CyclinB1/CDK1; [2]) did it give?
A: 20 nM

Q: And the IC50 (CyclinE1/CDK2; [3])?
A: 3150 nM

Q: What about the GI50 (NCI-H1048 cells) of the same compound?
A: 340 nM

Q: What about the GI50 (OVCAR3 cells) of the same compound?
A: 880 nM

Q: Which results are given for CC(C)C[C@@H]1NC(=O)[C@@H](N(C)C(=O)[C@@H](NC(=O)[C@@H]2C[C@@H](F)CN2C(=O)C2(C(F)(F)F)CC(F)(F)C2)C2CC2)CCCCCCCNC(=O)[C@H](Cc2cc(Cl)ccc2-c2ccc3c(c2)COC32CN(C)C2)N(C)C1=O [Example 395] ({cBuCO(3,3-F2-1-CF3)}-[Pro(trans-4-F)][Gly(cPr)][NMe(hhhLys)]L[X98]; lactam 3-C)?
A: GI50 (NCI-H1048 cells): 20 nM; GI50 (OVCAR3 cells): 10 nM

Q: Which results are given for CC(C)C[C@@H]1NC(=O)[C@@H](N(C)C(=O)[C@@H](NC(=O)[C@@H]2C[C@@H](F)CN2C(=O)C2(C(F)(F)F)CC3(CCC3)C2)C2CC2)CC=CCCCCNC(=O)[C@H](Cc2cc(Cl)ccc2Cl)N(C)C1=O (single isomer, unassigned) [Example 16-P2]?
A: IC50 (CyclinB1/CDK1; [2]): 20 nM; IC50 (CyclinE1/CDK2; [3]): 2710 nM; GI50 (NCI-H1048 cells): 350 nM; GI50 (OVCAR3 cells): 990 nM

Q: With CC(C)Cc1ccc(Cl)cc1C[C@H]1C(=O)NCCCCCCC[C@H](N(C)C(=O)[C@@H](NC(=O)[C@@H]2C[C@@H](F)CN2C(=O)C2(C(F)(F)F)CC(F)(F)C2)C2CC2)C(=O)N[C@@H](CC(C)C)C(=O)N1C [Example 64] ({cBuCO(3,3-F2-1-CF3)}-[Pro(trans-4-F)][Gly(cPr)][NMe(hhhLys)]L[X214]; lactam 3-C) as the compound, how does the IC50 (CyclinA2/CDK2; [1]) read?
A: 380 nM

Q: What about the IC50 (CyclinB1/CDK1; [2]) of the same compound?
A: 20 nM

Q: And the GI50 (NCI-H1048 cells)?
A: 510 nM

Q: What about the GI50 (OVCAR3 cells) of the same compound?
A: 1240 nM

Q: Which results are given for CC(=O)N1CC=C(c2ccc(Cl)cc2C[C@H]2C(=O)N(C)CCCCCCC[C@H](N(C)C(=O)[C@@H](NC(=O)[C@@H]3C[C@@H](F)CN3C(=O)C3(C(F)(F)F)CC(F)(F)C3)C3CC3)C(=O)N[C@@H](CC(C)C)C(=O)N2C)CC1 [Example 50, (2S,4R)—N—((S)-2-(((3S,6S,9S)-3-(2-(1-acetyl-1,2,3,6-tetrahydropyridin-4-yl)-5-chlorobenzyl)-6-isobutyl-1,4-dimethyl-2,5,8-trioxo-1,4,7-triazacyclohexadecan-9-yl)(methyl)amino)-1-cyclopropyl-2-oxoethyl)-1-(3,3-difluoro-1-(trifluoromethyl)cyclobutane-1-carbonyl)-4-fluoropyrrolidine-2-carboxamide] ({cBuCO(3,3-F2-1-CF3)}-[Pro(trans-4-F)][Gly(cPr)][NMehhhLys(Me)]L[X90]; lactam 3-C)?
A: IC50 (CyclinB1/CDK1; [2]): 20 nM; IC50 (CyclinE1/CDK2; [3]): 1220 nM; GI50 (NCI-H1048 cells): 10 nM; GI50 (OVCAR3 cells): 10 nM

Q: Which results are given for CC(C)C[C@@H]1NC(=O)[C@@H](N(C)C(=O)[C@@H](NC(=O)[C@@H]2C[C@@H](F)CN2C(=O)C2(C(F)(F)F)CC(F)(F)C2)C2CC2)CCCCCCCN(C)C(=O)[C@H](Cc2cc(Cl)cc3c2cnn3C)N(C)C1=O [Example 424] ({cBuCO(3,3-F2-1-CF3)}-[Pro(trans-4-F)][Gly(cPr)][NMehhhLys(Me)]L[X213]; lactam 3-C)?
A: IC50 (CyclinB1/CDK1; [2]): 45.5 nM; IC50 (CyclinE1/CDK2; [3]): 3820 nM; GI50 (NCI-H1048 cells): 2510 nM; GI50 (OVCAR3 cells): 1780 nM

Q: Which IC50 (CyclinB1/CDK1; [2]) does the source give for CC(C)C[C@@H]1NC(=O)[C@@H](N(C)C(=O)[C@@H](NC(=O)[C@@H]2C[C@@H](F)CN2C(=O)C2(C(F)(F)F)CC(F)(F)C2)C2CC2)CC=CCCCCN(C)C(=O)[C@H](Cc2cc(Cl)ccc2Cl)N(C)C1=O [Example 14] here?
A: 20 nM

Q: And the IC50 (CyclinE1/CDK2; [3])?
A: 340 nM

Q: What about the GI50 (NCI-H1048 cells) of the same compound?
A: 100 nM

Q: What about the GI50 (OVCAR3 cells) of the same compound?
A: 200 nM

Q: How did the IC50 (CyclinB1/CDK1; [2]) turn out when CC(C)C[C@@H]1NC(=O)[C@@H](N(C)C(=O)[C@@H](NC(=O)[C@@H]2C[C@@H](F)CN2C(=O)C2(C(F)(F)F)CC(F)(F)C2)C2CC2)CCCCCCCN(C)C(=O)[C@H](Cc2cc(Cl)ccc2-c2cccnc2)N(C)C1=O [Example 196] ({cBuCO(3,3-F2-1-CF3)}-[Pro(trans-4-F)][Gly(cPr)][NMehhhLys(Me)]L[X66]; lactam 3-C) was run?
A: 20 nM

Q: What about the IC50 (CyclinE1/CDK2; [3]) of the same compound?
A: 740 nM

Q: And the GI50 (NCI-H1048 cells)?
A: 10 nM

Q: And the GI50 (OVCAR3 cells)?
A: 10 nM

Q: For CC(C)C[C@@H]1NC(=O)[C@@H](N(C)C(=O)[C@@H](NC(=O)[C@@H]2C[C@@H](F)CN2C(=O)C2(C(F)(F)F)CC(F)(F)C2)C2CC2)CCCCCCCNC(=O)[C@H](Cc2cc(Cl)ccc2Cl)N(C)C1=O [Example 7] ({cBuCO(3,3-F2-1-CF3)}-[Pro(trans-4-F)][Gly(cPr)][NMe(hhhLys)]L[NMePhe(2,5-Cl2)]; lactam 3-C), which IC50 (CyclinB1/CDK1; [2]) is on record?
A: 20 nM

Q: And the IC50 (CyclinE1/CDK2; [3])?
A: 290 nM

Q: What about the GI50 (NCI-H1048 cells) of the same compound?
A: 20 nM

Q: And the GI50 (OVCAR3 cells)?
A: 50 nM

Q: Which results are given for COc1ncc(Cl)cc1C[C@H]1C(=O)N(C)CCCCCCC[C@H](N(C)C(=O)[C@@H](NC(=O)[C@@H]2C[C@@H](F)CN2C(=O)C2(C(F)(F)F)CC(F)(F)C2)C2CC2)C(=O)N[C@@H](CC(C)C)C(=O)N1C [Example 222] ({cBuCO(3,3-F2-1-CF3)}-[Pro(trans-4-F)][Gly(cPr)][NMehhhLys(Me)]L[NMe3Pal(2-OMe,5-Cl)]; lactam 3-C)?
A: IC50 (CyclinB1/CDK1; [4]): 20 nM; IC50 (CyclinE1/CDK2): 230 nM; GI50 (NCI-H1048 cells): 10 nM; GI50 (OVCAR3 cells): 10 nM

Q: What does the source list for CC(C)C[C@@H]1NC(=O)[C@@H](N(C)C(=O)[C@@H](NC(=O)[C@@H]2C[C@@H](F)CN2C(=O)C2(C(F)(F)F)CC(F)(F)C2)C2CC2)CC=CCCCCNC(=O)[C@H](Cc2cc(Cl)ccc2-c2cccc(Cl)c2)N(C)C1=O [Example 19]?
A: IC50 (CyclinA2/CDK2; [1]): 430 nM; IC50 (CyclinB1/CDK1; [2]): 20 nM; GI50 (NCI-H1048 cells): 550 nM; GI50 (OVCAR3 cells): 1760 nM

Q: What does the source list for Cc1noc(C)c1-c1ccc(Cl)cc1C[C@H]1C(=O)N(C)CCCCCCC[C@H](N(C)C(=O)[C@@H](NC(=O)[C@@H]2C[C@@H](F)CN2C(=O)C2(C(F)(F)F)CC(F)(F)C2)C2CC2)C(=O)N[C@@H](CC(C)C)C(=O)N1C [Example 210] ({cBuCO(3,3-F2-1-CF3)}-[Pro(trans-4-F)][Gly(cPr)][NMehhhLys(Me)]L[X215]; lactam 3-C)?
A: IC50 (CyclinA2/CDK2): 420 nM; IC50 (CyclinB1/CDK1; [4]): 20 nM; GI50 (NCI-H1048 cells): 100 nM; GI50 (OVCAR3 cells): 110 nM

Q: CC(C)C[C@@H]1NC(=O)[C@@H](N(C)C(=O)[C@@H](NC(=O)[C@@H]2C[C@@H](F)CN2C(=O)C2(C(F)(F)F)CC(F)(F)C2)C2CC2)CC=CCCCCNC(=O)[C@H](Cc2cc(Cl)ccc2C2=CCC(F)(F)CC2)N(C)C1=O [Example 22] was tested. Which IC50 (CyclinA2/CDK2; [1]) did it give?
A: 210 nM

Q: And the IC50 (CyclinB1/CDK1; [2])?
A: 20 nM

Q: What about the GI50 (NCI-H1048 cells) of the same compound?
A: 1100 nM

Q: What about the GI50 (OVCAR3 cells) of the same compound?
A: 1800 nM

Q: How did the IC50 (CyclinB1/CDK1; [4]) turn out when CC(C)C[C@@H]1NC(=O)[C@@H](N(C)C(=O)[C@@H](NC(=O)[C@@H]2C[C@@H](F)CN2C(=O)C2(C(F)(F)F)CC(F)(F)C2)C2CC2)CCCCCCCN(C)C(=O)[C@H](Cc2cc(Cl)ccc2C2=CC(=O)N(C)CC2)N(C)C1=O [Example 237] ({cBuCO(3,3-F2-1-CF3)}-[Pro(trans-4-F)][Gly(cPr)][NMehhhLys(Me)]L[X216]; lactam 3-C) was run?
A: 20 nM

Q: And the IC50 (CyclinE1/CDK2; Cyclin E FP IC50, 10 nM Cyclin E1/Cdk2, 2 nM FAM probe, average of 2-3 independent experiments)?
A: 1140 nM

Q: What about the GI50 (NCI-H1048 cells) of the same compound?
A: 10 nM

Q: And the GI50 (OVCAR3 cells)?
A: 40 nM
